Assay results as given in US5061729A, “Pharmaceutical composition and process for preparing the same” (priority 1988, dated 1991).
Where two headings read alike, the source gives them in different places.

Key:
[1] = system: pathogenic micro-organisms occurring in the discharges of patients suffering from chronic otitis; assay: treatment of the ear discharges by antibacterial agents (sensitivity, Table 2); assay type: cell-based; settings: for A = therapeutically active (sensitive) / M = moderately active / R = inactive (resistant): number of cases of 510 examinations; for Act. = activity %: share of active cases, 510 examinations
Description: In the Department for Otorhinolaryngology of the Medical University of Debrecen, adult and child patients were examined to identify the types of pathogenic micro-organisms occurring in the discharges of patients suffering from chronic otitis (otitis media chronica); the discharges of 510 patients were analyzed for the bacterial infection.
Symbols used in Table 2:
0 = number of the cases not examined
A = therapeutically active (sensitive)

[2] = cited from earlier work
[3] = mice; oral administration; cited from earlier work
[4] = system: several gram-positive and gram-negative bacteria such as Pseudomonas aeruginosa; settings: in vitro conditions; M. F. Parry et al.; cited from earlier work
[5] = rats; oral administration; cited from earlier work
[6] = dogs; oral administration; cited from earlier work
[7] = single-component treatment: aqueous solutions of sulfhydryl compounds; assay type: in vivo, patients; settings: acetylcysteine solution
[8] = mucolytic (viscosity-reducing) effect of sulfhydryl compounds; settings: comparison of compounds containing a sulfhydryl group
[9] = single-component treatment: 1% tobramycin solution in chronic mesotympanic otitis; assay type: in vivo, patients; settings: 1% solution
From the text: (§1) Several compositions according to the invention were also studied with omitting one active ingredient of the composition in order to support the progressive character of the multi-active-component type composition according to the invention. These experiments led to the following results.

[10] = single-component treatment: 1% tobramycin solution in external otitis; assay type: in vivo, patients; settings: 1% solution
From the text: as §1

[11] = with sulfhydryl-containing compounds, particularly acetylcysteine

| Compound | A = therapeutically active (sensitive) [1] | M = moderately active [1] | R = inactive (resistant) [1] | Act. = activity % [1] | also measured |
| --- | --- | --- | --- | --- | --- |
| CC1(C)S[C@@H]2[C@H](NC(=O)[C@H](N)c3ccccc3)C(=O)N2[C@H]1C(=O)O [Ampicillin] | 72 | 11 | 120 | 40.8% | – |
| CC1(C)S[C@@H]2[C@H](NC(=O)C(C(=O)O)c3ccccc3)C(=O)N2[C@H]1C(=O)O (stereo partly shown) [Carbenicillin] | 137 | 22 | 91 | 63.6% | – |
| O=C(Cc1cccs1)N[C@@H]1C(=O)N2C(C(=O)[O-])=C(C[n+]3ccccc3)CS[C@H]12 [Cephaloridin] | 170 | 27 | 182 | 51.9% | – |
| O=C(N[C@H](CO)[C@H](O)c1ccc([N+](=O)[O-])cc1)C(Cl)Cl [Chloramphenicol] | 106 | 11 | 197 | 37.2% | – |
| CC[C@H]1OC(=O)[C@H](C)[C@@H](O[C@H]2C[C@@](C)(OC)[C@@H](O)[C@H](C)O2)[C@H](C)[C@@H](O[C@@H]2O[C@H](C)C[C@H](N(C)C)[C@H]2O)[C@](C)(O)C[C@@H](C)C(=O)[C@H](C)[C@@H](O)[C@]1(C)O [Erythromycin] | 113 | 6 | 208 | 36.4% | influence of sulfhydryl-containing compounds on absorption from the stomach ([2]; in vivo): not disadvantageously influenced by the sulfhydryl-containing compounds |
| COc1cccc(OC)c1C(=O)N[C@@H]1C(=O)N2[C@@H]1SC(C)(C)[C@@H]2C(=O)O [Meticillin] | 146 | 27 | 95 | 64.6% | – |
| CC(=O)N[C@@H](CS)C(=O)O [N-acetyl-L-cysteine] | – | – | – | – | LD50 [3]: 3000 mg/kg of body-weight; synergistic effect with several antibiotics [4]: shows a synergistic effect with several antibiotics; LD50 [5]: 6000 mg/kg of body-weight; LD50 [6]: 1000 mg/kg of body-weight; character of the discharge under treatment [7]: rather took the form of a precipitate; mucolytic effect [8]: most useful mucolytic agent |
| CO[C@H]1C[C@H](O[C@H]2[C@H](C)[C@@H](O[C@@H]3O[C@H](C)C[C@H](N(C)C)[C@H]3O)[C@@H](C)C[C@@]3(CO3)C(=O)[C@H](C)[C@@H](O)[C@@H](C)[C@@H](C)OC(=O)[C@@H]2C)O[C@@H](C)[C@@H]1O [Oleandomycin] | 114 | 4 | 179 | 39.7% | – |
| Cc1onc(-c2ccccc2)c1C(=O)N[C@@H]1C(=O)N2[C@@H]1SC(C)(C)[C@@H]2C(=O)O [Oxacillin] | 191 | 13 | 77 | 72.6% | – |
| CC1(C)S[C@@H]2[C@H](NC(=O)Cc3ccccc3)C(=O)N2[C@H]1C(=O)O [Penicillin] | 67 | 22 | 218 | 29.4% | – |
| [H]/N=C(/N)N[C@H]1[C@H](O)[C@@H](O)[C@H](O[C@@H]2O[C@@H](C)[C@](O)(C=O)[C@H]2O[C@@H]2O[C@@H](CO)[C@H](O)[C@@H](O)[C@@H]2NC)[C@@H](N/C(N)=N\[H])[C@@H]1O [Streptomycin] | 39 | 42 | 87 | 48.2% | – |
| CN(C)[C@@H]1C(=O)C(C(N)=O)=C(O)[C@@]2(O)C(=O)C3=C(O)c4c(O)cccc4[C@@](C)(O)[C@H]3C[C@@H]12 [Tetracyclin] | 79 | 16 | 279 | 25.4% | – |
| NC[C@H]1O[C@H](O[C@H]2[C@H](O)[C@@H](O[C@H]3O[C@H](CO)[C@@H](O)[C@H](N)[C@H]3O)[C@H](N)C[C@@H]2N)[C@H](N)C[C@@H]1O [Tobramycin, tobramycin] | 116 | 86 | 61 | 79.2% | substantial improvement of the pathological processes, % of patients [9]: about 60%; influence of sulfhydryl-containing compounds on absorption from the stomach ([2]; in vivo): not disadvantageously influenced by the sulfhydryl-containing compounds; substantial improvement, % of patients [10]: ≤ 40% |
| CC1(C)S[C@@H]2[C@H](NC(=O)[C@H](N)c3ccc(O)cc3)C(=O)N2[C@H]1C(=O)O [amoxicillin] | – | – | – | – | influence of sulfhydryl-containing compounds on absorption from the stomach [2, 11]: not disadvantageously influenced by the sulfhydryl-containing compounds |
| N[C@@H](CSCC(=O)O)C(=O)O [carbocysteine] | – | – | – | – | mucolytic effect [8]: mucolytic effect can also be shown |
| O=C(O)C(S)C(S)C(=O)O (stereo not shown) [dimercaptosuccinate] | – | – | – | – | mucolytic effect [8]: mucolytic effect can also be shown |
| CCN(CC)C(=S)SSC(=S)N(CC)CC [disulfiram] | – | – | – | – | mucolytic effect [8]: mucolytic effect can also be shown |
| O[C@H](CS)[C@@H](O)CS [dithioerythritol] | – | – | – | – | mucolytic effect [8]: mucolytic effect can also be shown |
| C[C@H]1c2cccc(O)c2C(O)=C2C(=O)[C@]3(O)C(O)=C(C(N)=O)C(=O)[C@@H](N(C)C)[C@@H]3[C@@H](O)[C@@H]21 [doxycyclin] | – | – | – | – | influence of sulfhydryl-containing compounds on absorption from the stomach [2, 11]: not disadvantageously influenced by the sulfhydryl-containing compounds |
| N[C@@H](CCC(=O)N[C@@H](CS)C(=O)NCC(=O)O)C(=O)O [glutathione] | – | – | – | – | mucolytic effect [8]: mucolytic effect can also be shown |
| CC(C)(CO)[C@@H](O)C(=O)NCCC(=O)NCCS [pantetheine] | – | – | – | – | mucolytic effect [8]: mucolytic effect can also be shown |
| Gentamycin | 65 | 72 | 118 | 53.7% | – |
| Polymyxin B | 69 | 8 | 103 | 42.7% | – |
| neomycin | 27 | 13 | 5 | 88.9% | influence of sulfhydryl-containing compounds on absorption from the stomach ([2]; in vivo): not disadvantageously influenced by the sulfhydryl-containing compounds |
